Assay results reported in PMC10767194 (The Journal of Biological Chemistry, 2023).

Experiments:
Cdk10/CycQ = molecular target: T1, Cdk10/CycQ (Homo sapiens, UniProt Q15131); assay: radioactive in vitro kinase assay, Cdk10/CycQ; type: biochemical; conditions: 0.2 mM ATP
T1 construct: Full-length, human, WT Cdk10 (residues 1–360, UniProt Q15131); made in house; host or cells: Sf9 insect cells
Description: (§1) Radioactive kinase activity assays were performed in a total volume of 15 μl per sample in kinase assay buffer (50 mM Hepes/pH 7.6, 34 mM KCl, 7 mM MgCl2, 5 mM β-glycerol phosphate, and 2.5 mM dithioerythritol). Preincubation of 0.2 μM or 0.02 μM recombinant protein kinase with indicated concentrations of respective inhibitor and 0.2 to 2 mM ATP containing 0.45 mCi [^32P]-γ-ATP/ml (PerkinElmer) was carried out for 5 min. Kinase reactions were started by addition of substrate protein (10 μM GST-Rb1 for Cdk4/CycD3, 10 μM GST-CTD[52] for Cdk7/CycH/MAT1, 50 μM His-c-Myc for all others) and incubated for 20 min at 30 °C in a shaking incubator at 300 rpm. For pS7-CTD[3] peptide, the substrate concentration was increased to 100 μM and assays were performed for 60 min. Reactions were terminated by the addition of EDTA to a final concentration of 50 mM. […] Radioactive counts were determined in a Beckman Liquid Scintillation Counter (Beckman Coulter) for 1 min. […] IC50 values were extracted from triplicate measurements by sigmoidal curve fitting using DataGraph (v. 5.0; https://www.visualdatatools.com/DataGraph/) or were determined by applying the Morrison quadratic equation for tight binding inhibitors using GraphPad Prism 10 (https://www.graphpad.com/) ([40]).

Cdk8/CycC = assay: radioactive in vitro kinase assay, Cdk8/CycC; type: biochemical, human; conditions: 0, 0.1, 1, 10, 100 μM compound, 0.2 μM kinase, 0.2 mM ATP
Description: as §1

Cdk9/CycT1 = molecular target: T2, Cdk9/CycT1 (Homo sapiens, UniProt P50750); assay: radioactive in vitro kinase assay, Cdk9/CycT1; type: biochemical; conditions: 0, 0.1, 1, 10, 100 μM compound, 0.2 μM kinase, 0.2 mM ATP
T2 construct: Full-length, human, WT Cdk9 (residues 1–372, UniProt P50750); made in house; host or cells: Cdk9: Sf9 insect cells; CycT1: E. coli
Description: as §1

HIPK1 = tested on: T3, HIPK1; assay: radioactive in vitro kinase assay, HIPK1; type: biochemical, human; conditions: 0, 0.1, 1, 10, 100 μM compound, 0.2 μM kinase, 0.2 mM ATP
T3 construct: human HIPK1 (residues 154–554, UniProt Q86Z02); made in house; host or cells: Sf9 insect cells
Description: as §1

Cdk13/CycK = molecular target: T4, Cdk13/CycK (Homo sapiens, UniProt Q14004); assay: SPR single-cycle kinetics, active Cdk13*/CycK; conditions: T-loop phosphorylated active kinase (CAK1 coexpressed), 1:1 binding model
T4 construct: The kinase domain of human Cdk13 (residues 694–1039, UniProt Q14004); made in house; host or cells: Sf9 insect cells, co-expressed with CAK1
Description: The protein kinases were immobilized on a CM5 chip using the amine-coupling method. […] The fully active and T-loop phosphorylated kinase preparations of Cdk12∗/CycK and Cdk13∗/CycK were obtained through coexpression with Cdk-activating kinase 1 (CAK1) from Saccharomyces cerevisiae. […] For comparison, we measured the affinity of NVP-2 for active kinases Cdk12∗/CycK and its proposed target Cdk9/CycT1 by SPR.
SPR experiments were conducted on a Biacore 8K (Cytiva) device. The system was equilibrated in running buffer (20 mM Tris pH 8, 150 mM NaCl, 1 mM tris(2-carboxyethyl)phosphine, 0.1 mM MgCl2, 0.05% Tween20, and 2% DMSO) at 25 °C. Flow cell 1 and 2 surfaces of a CM5 sensor chip (Cytiva) were conditioned with 50 mM NaOH at a flow rate of 30 μl/min for 15 s and subsequently activated with a 1:1 mix of 0.1 M N-hydroxysuccinimide (NHS) and 0.1 M 3-(N,N-dimethylamino) propyl-N-ethyl-carbodiimide (EDC) at a flow rate of 10 μl/min for 7 min. The flow system was washed with 1 M enthanolamine (pH 8). WT and mutant kinases Cdk12/CycK, Cdk13/CycK and Cdk9/CycT1 were diluted in Mes (pH 6.5) to a final concentration of 2 μM. Immobilization of kinases was performed in running buffer without DMSO using the amine coupling method on flow cell 2 surface for 160 s at a flow rate of 10 μl/min. Free binding sites were blocked with 1 M ethanolamine pH 8.0 (10 μl/min) for 7 min. […]

T1 sequence (Q15131 whole entry, the tested form may be a part): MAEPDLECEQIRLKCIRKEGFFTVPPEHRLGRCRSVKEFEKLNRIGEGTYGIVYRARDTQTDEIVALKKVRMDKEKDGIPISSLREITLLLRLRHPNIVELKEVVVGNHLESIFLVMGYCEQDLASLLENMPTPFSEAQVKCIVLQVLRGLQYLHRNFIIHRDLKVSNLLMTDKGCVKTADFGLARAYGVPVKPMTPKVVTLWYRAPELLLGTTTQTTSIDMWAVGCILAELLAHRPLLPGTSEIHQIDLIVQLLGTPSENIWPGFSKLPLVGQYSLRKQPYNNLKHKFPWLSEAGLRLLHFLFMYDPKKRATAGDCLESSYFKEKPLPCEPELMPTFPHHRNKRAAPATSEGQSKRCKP
T1 sequence (Q8N1B3 whole entry partner, the tested form may be a part): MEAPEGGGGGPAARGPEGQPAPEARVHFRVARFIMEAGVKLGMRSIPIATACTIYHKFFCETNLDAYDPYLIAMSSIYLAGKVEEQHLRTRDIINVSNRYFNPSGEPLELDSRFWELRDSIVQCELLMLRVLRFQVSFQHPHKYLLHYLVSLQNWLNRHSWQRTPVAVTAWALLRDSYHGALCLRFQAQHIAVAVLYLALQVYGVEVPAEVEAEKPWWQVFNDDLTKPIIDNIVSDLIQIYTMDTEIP
T2 sequence (P50750 whole entry, the tested form may be a part): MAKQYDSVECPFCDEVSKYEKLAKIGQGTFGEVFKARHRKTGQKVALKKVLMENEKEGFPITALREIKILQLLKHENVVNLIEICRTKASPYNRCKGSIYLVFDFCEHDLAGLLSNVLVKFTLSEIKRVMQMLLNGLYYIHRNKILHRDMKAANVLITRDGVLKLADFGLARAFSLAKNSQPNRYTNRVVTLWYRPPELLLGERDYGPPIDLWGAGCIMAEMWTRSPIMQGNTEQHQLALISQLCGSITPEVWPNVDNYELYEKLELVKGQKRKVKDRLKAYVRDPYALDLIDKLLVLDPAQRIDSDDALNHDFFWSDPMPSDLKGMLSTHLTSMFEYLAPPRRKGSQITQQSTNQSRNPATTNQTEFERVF
T2 sequence (O60563 1-272 partner limits assumed): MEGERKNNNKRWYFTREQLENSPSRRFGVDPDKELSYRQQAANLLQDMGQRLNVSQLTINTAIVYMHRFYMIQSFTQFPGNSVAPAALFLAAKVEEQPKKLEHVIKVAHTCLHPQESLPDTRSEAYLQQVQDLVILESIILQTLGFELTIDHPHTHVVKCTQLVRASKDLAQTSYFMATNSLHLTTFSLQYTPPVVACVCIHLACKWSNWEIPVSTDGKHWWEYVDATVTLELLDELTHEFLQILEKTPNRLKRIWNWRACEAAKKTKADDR
T4 sequence (Q14004 694-1039): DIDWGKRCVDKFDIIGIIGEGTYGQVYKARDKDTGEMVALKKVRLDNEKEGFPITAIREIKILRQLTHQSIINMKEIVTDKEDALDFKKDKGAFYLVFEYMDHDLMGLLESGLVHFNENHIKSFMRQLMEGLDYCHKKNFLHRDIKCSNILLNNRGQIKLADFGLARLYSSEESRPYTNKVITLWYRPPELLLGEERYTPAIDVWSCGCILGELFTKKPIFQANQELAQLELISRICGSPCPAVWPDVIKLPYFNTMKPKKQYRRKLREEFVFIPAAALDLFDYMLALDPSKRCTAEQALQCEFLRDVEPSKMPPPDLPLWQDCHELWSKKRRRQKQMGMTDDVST
T4 sequence (O75909 1-267 partner limits assumed): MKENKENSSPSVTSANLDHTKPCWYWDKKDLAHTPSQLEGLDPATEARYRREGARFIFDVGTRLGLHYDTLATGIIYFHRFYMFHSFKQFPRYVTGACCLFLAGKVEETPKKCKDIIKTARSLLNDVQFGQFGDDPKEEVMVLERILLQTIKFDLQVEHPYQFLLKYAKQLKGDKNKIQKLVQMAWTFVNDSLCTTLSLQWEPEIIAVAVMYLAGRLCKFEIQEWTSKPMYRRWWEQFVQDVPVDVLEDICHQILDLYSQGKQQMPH

`Cn1cc(-n2cnc3c(NCc4nc5cc(Cl)c(Cl)cc5[nH]4)nc(N4CCOCC4)nc32)cn1` [SR-4835] was tested, and the “inhibition of Cdk10/CycQ activity” value (Cdk10/CycQ; 0, 0.1, 1, 10, 100 μM compound, 0.2 μM kinase) was “moderate SR-4835 concentration dependent decrease”, the IC50 (Cdk10/CycQ; concentration range 1 nM to 1 mM, sigmoidal fit) was 1070 nM and the “inhibition of Cdk8 activity” value (Cdk8/CycC) was “no inhibitory activity”. The “inhibition of Cdk9 activity” value (Cdk9/CycT1) was “no inhibitory activity”, the “inhibition of HIPK1 activity” value (HIPK1) was “not inhibited” and the Kd (Cdk13/CycK) was 168 nM.
